Experimental data from paper PMC8346995, “Synthesis, Characterization, In Vitro Anticancer Potentiality, and Antimicrobial Activities of Novel Peptide–Glycyrrhetinic-Acid-Based Derivatives” (Molecules, 2021).
Converted amounts (≈) assume the structure as drawn. Residues, ends and D or L forms follow the SMILES beside them. *: point of attachment. X1 = CC1(C(=O)*)CCC2(C)CCC3(C)C(=CC(=O)C4C5(C)CCC(O)C(C)(C)C5CCC43C)C2C1

Tests used:
[1] = tested on: human breast MCF-7 cancer cell line; assay: MTT cytotoxicity assay, breast MCF-7 cancer cell line; type: cell-based; conditions: Homo sapiens, MCF7; MTT, mean of three replicates; read-out: IC50 (µg/mL) ± SD MCF-7
Procedure: (§1) Accordingly, all the newly synthesized GA-based peptides except 1 and 6 were screened for their cytotoxicity against three different human cancer cell lines: MCF-7, HCT-116, and HepG-2 cell lines at different concentrations (10, 5, 2.5, 1.25, and 0.625 µg/mL).
(§2) Human breast MCF-7, colon HCT-116, and liver HepG-2 carcinoma cell line were taken from Vacsera (Giza, Egypt). The culture was retained in RPMI 1640 medium with 1% antibiotic–antimycotic mixture (25 μg/mL amphotericin B, 10,000 μg/mL streptomycin sulfate, and 10,000 U/mL potassium penicillin), 1% L-glutamine, and complemented by 10% heat inactivated fetal bovine serum. […] This experiment was carried out according to the reported MTT assay method, and the absorbance was measured at 595 nm.

[2] = tested on: human colon HCT-116 cancer cell line; assay: MTT cytotoxicity assay, colon HCT-116 cancer cell line; conditions: for IC50: Homo sapiens, HCT-116, read-out: IC50 (µg/mL) ± SD HCT-116
Procedure: as §1, §2

[3] = tested on: human normal skin fibroblasts cell line BJ-1; assay: Cytotoxicity against normal skin fibroblasts BJ-1; type: cell-based; conditions: human, 10 µg/mL
Procedure: The frequency and severity of side effects to normal cells at therapeutic levels is one of the most critical factors that distinguish different anticancer drugs from each other. Accordingly, the GA peptides 1–8 were furthermore screened for their cytotoxicity at 10 µg/mL against the human normal skin fibroblasts cell line BJ-1 to determine their safety upon normal cells (Figure 4).

[4] = tested on: Bcl-2; assay: Estimation of Bcl-2 level in MCF-7 cells; type: cell-based, human; conditions: MCF-7 cells treated at IC50 5 μg/mL for 24 h; untreated 7.20 ng/mL
Text: (§3) The extrinsic pathway (death receptor) and the intrinsic pathway (mitochondrial route) are the main two routes that control a cell during apoptosis. The Bcl-2 protein introduces a central role in tumor growth or suppression the intrinsic apoptotic pathway. Conversely, the pro-apoptotic Bax acts essentially to enhance the process of cell apoptosis. Increasing the level of the anti-apoptotic Bcl-2 within the cancerous cell boosts the cell survival through inhibiting apoptosis. Accordingly, a balance situation between these two proteins determines the cell fate. Furthermore, p53 serves as a transcription factor acting as a tumor suppressor protein. This protein is expressed due to various cellular stresses such as DNA disruption. It is usually mutated in human cancers. The p53 pathway mediates either cell cycle arrest or apoptosis controlling the expression of Bcl-2 and Bax genes. Thus, since compound 5 produced the most promising cytotoxic activity against breast cancer cell lines with a safety profile against the normal cells, it was of interest to study its impact on the regulation of the oncogenic markers Bax, Bcl-2, and p53. […]
The samples and standards having Bcl-2 were estimated as previously mentioned. […] Then, the reaction was terminated by adding acid, and the absorbance was measured at 450 nm.

[5] = tested on: Bax; assay: Estimation of Bax level in MCF-7 cells; type: cell-based, human; conditions: MCF-7 cells treated at IC50 for 24 h; untreated 65.50 Pg/mL
Text: as §3
The levels of Bax protein were evaluated according to the reported method. […] Then, the reaction was terminated by adding acid, and optical density of the produced color was measured at 450 nm.

[6] = tested on: Human p53; assay: Estimation of human p53 level in MCF-7 cells (ELISA); type: cell-based
Text: as §3, with “genes.” for “genes. Thus, since compound 5 produced the most promising cytotoxic activity against breast cancer cell lines with a safety profile against the normal cells, it was of interest to study its impact on the regulation of the oncogenic markers Bax, Bcl-2, and p53.”
Human p53 present in MCF-7 cells was determined; using Human p53 ELISA-Kit (CS0070 Sigma) read using spectrophotometer at 450 nm against untreated control cells (negative control) and doxorubicin (positive control) applying the standard protocols of the manufacturers. […] Then, the reaction was terminated by adding acid, and the absorbance was measured at 450 nm.

[7] = tested on: caspase-3; assay: Human CASP-3 (caspase-3) estimation in MCF-7 cells; type: cell-based; conditions: MCF-7 cells treated at IC50 for 24 h; untreated 162 ng/mL
[8] = tested on: caspase-7; assay: Human CASP-7 (caspase-7) estimation in MCF-7 cells (ELISA); type: cell-based; conditions: for level of caspase-7: MCF-7 cells treated at IC50 for 24 h, untreated 0.3 ng/mL
Procedure: (§4) Caspases are a family of cysteine proteases that are responsible for launching the programmed cell death (apoptosis). […] Cell shrinkage, chromatin condensation, and DNA fragmentation are all apoptosis events, which need the involvement of caspase-7and caspase-3 [48, 54, 56].
The micro-ELISA plate provided in this kit pre-coated with CASP-7-specific antibody. A biotinylated CASP7 antibody and Avidin–horseradish p eroxidase (HRP) conjugate was added. Aspire the excess components. The substrate solution was added. Wells that contain CASP-7, biotinylated detection antibody, and Avidin-HRP conjugate will appear blue in color. The color turns yellow followed the addition of sulfuric acid solution. The optical density (OD) was measured at a wavelength of 450 nm ± 2 nm.

[9] = target: T1, Tubulin Beta (TUBb) (Homo sapiens, UniProt P07437); assay: ELISA kit for Tubulin Beta (TUBb), tubulin polymerization in MCF-7 cells; type: cell-based; conditions: read-out: inhibition of tubulin polymerization IC50 (tubulin B) (converted)
T1 construct: endogenous in cells; host or cells: MCF-7
T1 sequence (P07437 whole entry): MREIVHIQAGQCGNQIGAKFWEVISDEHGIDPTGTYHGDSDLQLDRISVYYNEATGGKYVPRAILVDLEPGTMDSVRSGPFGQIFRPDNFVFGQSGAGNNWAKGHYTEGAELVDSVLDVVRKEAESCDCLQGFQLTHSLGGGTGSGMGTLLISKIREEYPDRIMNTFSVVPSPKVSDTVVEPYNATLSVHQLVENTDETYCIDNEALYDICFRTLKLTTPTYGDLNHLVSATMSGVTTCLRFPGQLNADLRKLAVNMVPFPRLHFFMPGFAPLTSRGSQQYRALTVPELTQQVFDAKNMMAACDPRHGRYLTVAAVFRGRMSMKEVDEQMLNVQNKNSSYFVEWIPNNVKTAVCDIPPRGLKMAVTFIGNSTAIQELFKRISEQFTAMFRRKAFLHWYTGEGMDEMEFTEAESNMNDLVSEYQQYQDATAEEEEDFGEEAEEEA
T1 sequence (P68363 whole entry partner): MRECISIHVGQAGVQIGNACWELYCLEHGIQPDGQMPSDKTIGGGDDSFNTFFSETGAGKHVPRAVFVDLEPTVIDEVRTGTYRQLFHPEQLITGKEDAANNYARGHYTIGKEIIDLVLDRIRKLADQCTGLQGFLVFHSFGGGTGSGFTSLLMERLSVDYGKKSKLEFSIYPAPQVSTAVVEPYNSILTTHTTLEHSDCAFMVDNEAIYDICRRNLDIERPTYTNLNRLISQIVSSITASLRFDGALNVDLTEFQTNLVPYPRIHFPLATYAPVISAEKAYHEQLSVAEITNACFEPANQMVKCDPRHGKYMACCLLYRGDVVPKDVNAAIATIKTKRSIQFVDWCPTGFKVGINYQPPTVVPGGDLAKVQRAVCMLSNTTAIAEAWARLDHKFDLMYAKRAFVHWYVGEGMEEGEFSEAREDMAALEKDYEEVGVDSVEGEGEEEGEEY
Text: as §4

[10] = tested on: MCF-7 cells; assay: DNA fragmentation through DPA assay in MCF-7 cells; type: cell-based, human; conditions: treated MCF-7 cells
Procedure: as §4
Assessment of DNA fragmentation of the cells was done, as described by the reported method. Briefly, the cells were lysed for 15 min on ice with 0.5% (v/v) Triton X-100, 20 mM EDTA, and […] Tris (pH 8.0). Then, the cells were centrifuged to separate intact chromatin from DNA fragments for 20 min, at 27,000 Xg. Measurement of the amount of DNA was done using a diphenylamine reagent, and the optical density was measured at 600 nm.

[11] = tested on: Streptococcus pneumonia RCMB 010010; assay: Well diffusion assay, Streptococcus pneumonia; type: cell-based; conditions: Streptococcus pneumonia RCMB 010010, well diffusion
Procedure: (§5) The newly synthesized peptides 1–8 (compound 6 was not tested) was evaluated for their antimicrobial activity of against three pathogenic Gram-positive bacteria (Staphylococcus aureus ATCC25923, Streptococcus pneumoniaRCMB 010010, and Micrococcus Luteus), three pathogenic Gram-negative bacteria viz. Escherichia coli ATCC25922, Pseudomonas aeruginosa ATCC7853, and Proteus vulgaris RCMB 010085, and the yeast Candida albicans using the well diffusion method. […] The obtained data were documented for each derivative as the average diameter of the inhibition zones (IZ) in mm for the bacterial or the yeast growth around the discs (Table 2). […] Although Micrococcus Luteus bacteria is a normal commensal of human skin and the upper respiratory tract, it acts as an opportunistic pathogen and has been associated with various diseases including meningitis, septic arthritis, and endocarditis. […] Antimicrobial activity of the tested chemical peptides was determined by the well diffusion method for pathogenic bacteria having Gram-positive bacteria (Staphylococcus aureus ATCC25923, Streptococcus pneumonia, and Micrococcus luteus) and Gram-negative bacteria (Escherichia coli ATCC25922, Pseudomonas aeruginosa ATCC7853, and Proteus sp.) and Candida albicans as human pathogen yeast using the well diffusion method.

[12] = tested on: Staphylococcus aureus ATCC25923; assay: Well diffusion assay, Staphylococcus aureus; type: cell-based
Procedure: as §5

[13] = tested on: Micrococcus Luteus; assay: Well diffusion assay, Micrococcus Luteus; type: cell-based
Procedure: as §5

[14] = tested on: Escherichia coli ATCC25922; assay: Well diffusion assay, Escherichia coli; type: cell-based
Procedure: as §5

[15] = tested on: Pseudomonas aeruginosa ATCC7853; assay: Well diffusion assay, Pseudomonas aeruginosa; type: cell-based
Procedure: as §5

[16] = tested on: Proteus vulgaris RCMB 010085; assay: Well diffusion assay, Proteus vulgaris; type: cell-based; conditions: Proteus vulgaris RCMB 010085, well diffusion
Procedure: as §5

[17] = tested on: Candida albicans; assay: Well diffusion assay, Candida albicans; type: cell-based
Procedure: as §5

[18] = tested on: human liver cancer (HepG-2) cell line; assay: MTT cytotoxicity assay, liver HepG-2 cancer cell line; type: cell-based; conditions: Homo sapiens, HepG2; MTT, mean of three replicates; read-out: IC50 (µg/mL) ± SD HepG-2
Procedure: as §1, §2

SMILES: CC1(C(=O)NCC(=O)NCC(=O)NCC(=O)NCC(=O)O)CCC2(C)CCC3(C)C(=CC(=O)C4C5(C)CCC(O)C(C)(C)C5CCC43C)C2C1 (stereo not drawn) [Compound 5, 1-(10-Hydroxy-2,4a,6a,6b,9,9,12a-heptamethyl-13-oxo-1,2,3,4,4a,5,6,6a,6b,7,8,8a,9,10,11,12,12a,12b,13,14b-icosahydropicen-2-yl)-1,4,7,10-tetraoxo-2,5,8,11-tetraazatridecan-13-oic Acid] (X1-GGGG-OH)
- IC50 [1]: 5 ± 0.3 µg/mL (≈ 7.15 µM)
- IC50 [2]: 5.2 ± 0.8 µg/mL (≈ 7.44 µM)
- cytotoxicity percentage ([2]; human, 10 µg/mL): 96.16%
- cytotoxic effect on normal cells BJ-1 [3]: 20%
- level of Bcl-2 [4]: 3.40 ng/mL
- level of Bax protein [5]: 249.9 pg/mL
- rise of p53 level versus untreated MCF-7 ([6]; MCF-7, 5 μg/mL, 24 h): approximately six-fold
- level of p53 ([6]; MCF-7 cells treated at IC50 5 μg/mL for 24 h, untreated 111.07 Pg/mL): 679.8 pg/mL
- level of caspase-3 [7]: 477 ng/mL
- caspase-7 level elevation versus untreated cells ([8]; MCF-7, 5 μg/mL, 24 h): about a three-fold
- level of caspase-7 [8]: 0.9 ng/mL
- IC50 [9]: 848 nM
- DNA fragmentation, times the percent in untreated cells [10]: about 4.5 fold
- percentage of DNA fragmentation ([10]; untreated 7.8%): 35%
- Diameter of Inhibition Zone (mm) [11]: 16 ± 0.12 mm
- Diameter of Inhibition Zone (mm) [12]: 15 ± 0.15 mm
- Diameter of Inhibition Zone (mm) [13]: 30 ± 0.15 mm
- Diameter of Inhibition Zone (mm) [14]: 18 ± 0.23 mm
- Diameter of Inhibition Zone (mm) [15]: 17 ± 0.16 mm
- Diameter of Inhibition Zone (mm) [16]: 10 ± 0.17 mm
- Diameter of Inhibition Zone (mm) [17]: 13 ± 0.17 mm

SMILES: COc1cccc2c1C(=O)c1c(O)c3c(c(O)c1C2=O)C[C@@](O)(C(=O)CO)C[C@@H]3O[C@H]1C[C@H](N)[C@H](O)[C@H](C)O1 [DOX, doxorubicin, reference compound]
- IC50 [1]: 7.07 ± 1 µg/mL (≈ 13 µM)
- IC50 [2]: 1.09 ± 3 µg/mL (≈ 2.01 µM)
- IC50 [18]: 0.54 ± 1 µg/mL (≈ 0.994 µM)
- level of Bax protein [5]: 259.2 pg/mL
- level of caspase-3 [7]: 650 ng/mL
- level of caspase-7 [8]: 1.9 ng/mL
